The text below walks through data of patent publication US8299111B2, “Compounds which modulate the CB2 receptor” (Boehringer Ingelheim International GmbH, priority 2006, dated 2012).

Each structure is given as a SMILES string.

T1 sequence (P34972 whole entry): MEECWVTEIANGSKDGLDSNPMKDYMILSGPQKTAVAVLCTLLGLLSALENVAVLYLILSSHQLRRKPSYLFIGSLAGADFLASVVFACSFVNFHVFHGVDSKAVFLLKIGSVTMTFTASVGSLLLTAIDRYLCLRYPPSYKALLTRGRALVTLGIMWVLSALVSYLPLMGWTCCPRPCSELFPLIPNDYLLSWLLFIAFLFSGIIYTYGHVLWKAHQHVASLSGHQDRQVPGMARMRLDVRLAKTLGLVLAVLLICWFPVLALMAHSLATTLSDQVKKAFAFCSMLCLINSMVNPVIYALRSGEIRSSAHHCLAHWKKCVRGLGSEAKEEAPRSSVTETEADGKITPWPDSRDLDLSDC

The assay addresses T1, human CB2R (Homo sapiens, UniProt P34972).
T1 construct: host or cells: CHO cells
The assay is described as follows: CB2R mediated modulation of cAMP synthesis. The following applies: found through the use of the above described assays (binding and cAMP); CHO cells expressing human CB2R, forskolin-stimulated cAMP. It counts as cell-based. The procedure: B. CB2R Mediated Modulation of cAMP Synthesis:
CHO cells expressing human CB2R (Euroscreen) were plated at a density of 5000 cells per well in 384 well plates and incubated overnight at 37° C. After removing the media, the cells were treated with test compounds diluted in stimulation buffer containing 1 mM IBMX, 0.25% BSA and 10 uM Forskolin. The assay was incubated for 30 minutes at 37° C. Cells were lysed and the cAMP concentration was measured using DiscoverX -XS cAMP kit, following the manufacturer's protocol. In this setting, agonists will decrease forskolin induced production of cAMP while inverse agonists will further increase forskolin induced production of cAMP. EC50 of agonists were calculated as follows. The maximal amount of cAMP produced by forskolin compared to the level of cAMP inhibited by 1 uM CP55940 is defined as 100%. The EC50 value of each test compound was determined as the concentration at which 50% of the forskolin-stimulated cAMP synthesis was inhibited. Data was analyzed using a four-parameter logistic model. (Model 205 of XLfit 4.0).
With `CC(C)(C(=O)Nc1ccccn1)S(=O)(=O)c1ccc(Cl)cc1` [2-(4-Chloro-benzenesulfonyl)-2-methyl-N-pyridin-2-yl-propionamide], the agonistic activity entry is “agonistic activity”.
Regarding `CCCc1cc(NC(=O)C(C)(C)S(=O)(=O)c2ccc(Cl)cc2)on1` [2-(4-Chloro-benzenesulfonyl)-2-methyl-N-(3-propyl-isoxazol-5-yl)-propionamide], the agonistic activity result is “agonistic activity”.
`CC(C)(C(=O)Nc1nc(C(F)(F)F)cs1)S(=O)(=O)c1ccccc1` [2-Benzenesulfonyl-2-methyl-N-(4-trifluoromethyl-thiazol-2-yl)-propionamide]: the agonistic activity result is “agonistic activity”.
On to `CC(C)(C)c1cc(NC(=O)C2(S(=O)(=O)c3ccc(Cl)cc3)CCC2)no1` [1-(4-Chloro-benzenesulfonyl)-cyclobutanecarboxylic acid (5-tert-butyl-isoxazol-3-yl)-amide], for which the agonistic activity result is “agonistic activity”.
As for `CC(C)(C)c1cc(NC(=O)C(C)(C)S(=O)(=O)c2cc(F)ccc2F)no1` [N-(5-tert-Butyl-isoxazol-3-yl)-2-(2,5-difluoro-benzenesulfonyl)-2-methyl-propionamide], the agonistic activity entry was “agonistic activity”.
For `CC(C)(C(=O)Nc1ccc(F)c(C(F)(F)F)c1)S(=O)(=O)c1ccc(Cl)cc1` [2-[(4-chlorophenyl)sulfonyl]-N-[4-fluoro-3-(trifluoromethyl)phenyl]-2-methylpropanamide] the value was “agonistic activity”; for `CC(C)c1cnc(NC(=O)C(C)(C)S(=O)(=O)c2ccc(Cl)cc2)s1` [2-(4-Chloro-benzenesulfonyl)-N-(5-isopropyl-thiazol-2-yl)-2-methyl-propionamide], “agonistic activity”.
For `CC(C)(C(=O)Nc1ccc(C(F)(F)F)cn1)S(=O)(=O)c1cccc(F)c1` [2-(3-Fluoro-benzenesulfonyl)-2-methyl-N-(5-trifluoromethyl-pyridin-2-yl)-propionamide], the agonistic activity entry is listed as “agonistic activity”.
Turning to `CC(C)(C(=O)Nc1nc(-c2cccs2)cs1)S(=O)(=O)c1ccc(Cl)cc1` [2-(4-Chloro-benzenesulfonyl)-2-methyl-N-(4-thiophen-2-yl-thiazol-2-yl)-propionamide], the agonistic activity result is “agonistic activity”.
For `CC(C)(C)c1cc(NC(=O)C2(S(=O)(=O)c3ccc(Cl)cc3)CC2)[nH]n1` [1-(4-Chloro-benzenesulfonyl)-cyclopropanecarboxylic acid (5-tert-butyl-2H-pyrazol-3-yl)-amide] the value was “agonistic activity”.
As for `CCC(C)c1cc(NC(=O)C(C)(C)S(=O)(=O)c2ccc(Cl)cc2)on1` (stereo not shown) [N-(3-sec-Butyl-isoxazol-5-yl)-2-(4-chloro-benzenesulfonyl)-2-methyl-propionamide], the agonistic activity entry is “agonistic activity”.
For `CC(C)c1cc(NC(=O)C(C)(C)S(=O)(=O)c2ccc(C(F)(F)F)nc2)n(C)n1` [N-(3-isopropyl-1-methyl-1H-pyrazol-5-yl)-2-methyl-2-{[6-(trifluoromethyl)pyridin-3-yl]sulfonyl}propanamide] the value was “agonistic activity”; for `Cc1noc(NC(=O)C(C)(C)S(=O)(=O)c2ccc(Cl)cc2)c1-c1ccccc1` [2-(4-Chloro-benzenesulfonyl)-2-methyl-N-(3-methyl-4-phenyl-isoxazol-5-yl)-propionamide], “agonistic activity”; for `CC(C)(C)c1csc(NC(=O)C(C)(C)S(=O)(=O)c2ccc(C(F)(F)F)nc2)n1` [N-(4-tert-Butyl-thiazol-2-yl)-2-methyl-2-(6-trifluoromethyl-pyridine-3-sulfonyl)-propionamide], “agonistic activity”.
For `Cc1nc(NC(=O)C2(S(=O)(=O)c3ccc(Cl)cc3)CCC2)sc1C(C)(C)C` [1-(4-Chloro-benzenesulfonyl)-cyclobutanecarboxylic acid (5-tert-butyl-4-methyl-thiazol-2-yl)-amide] the value was “agonistic activity”.
As for `CC(C)(C)c1cc(NC(=O)C(C)(C)S(=O)(=O)c2cccc(OC(F)(F)F)c2)no1` [N-(5-tert-Butyl-isoxazol-3-yl)-2-methyl-2-(3-trifluoromethoxy-benzenesulfonyl)-propionamide], the agonistic activity entry is listed as “agonistic activity”.
On to `CC(C)(C)c1cc(NC(=O)C(C)(C)S(=O)(=O)c2ccc(Cl)cc2)[nH]n1` [N-(5-tert-Butyl-2H-pyrazol-3-yl)-2-(4-chloro-benzenesulfonyl)-2-methyl-propionamide], for which the agonistic activity result was “agonistic activity”.
With `CC(C)(C)c1csc(NC(=O)C(C)(C)S(=O)(=O)c2ccc(C#N)cc2F)n1` [N-(4-tert-Butyl-thiazol-2-yl)-2-(4-cyano-2-fluoro-benzenesulfonyl)-2-methyl-propionamide], the agonistic activity result is given as “agonistic activity”.
Take `Cc1sc(NC(=O)C(C)(C)S(=O)(=O)c2ccc(C(F)(F)F)nc2)nc1-c1ccccc1` [2-methyl-N-(5-methyl-4-phenyl-1,3-thiazol-2-yl)-2-{[6-(trifluoromethyl)pyridin-3-yl]sulfonyl}propanamide]: the agonistic activity result is recorded as “agonistic activity”.
For `CC(C)(C)c1cc(NC(=O)C(C)(C)S(=O)(=O)c2cccs2)no1` [N-(5-tert-Butyl-isoxazol-3-yl)-2-methyl-2-(thiophene-2-sulfonyl)-propionamide] the value was “agonistic activity”; for `CC(C)(C(=O)Nc1nc(C2CCCCC2)cs1)S(=O)(=O)c1ccc(Cl)cc1F` [2-[(4-chloro-2-fluorophenyl)sulfonyl]-N-(4-cyclohexyl-1,3-thiazol-2-yl)-2-methylpropanamide], “agonistic activity”; for `CCc1sc(NC(=O)C(C)(C)S(=O)(=O)c2ccc(Cl)cc2)nc1-c1ccccc1` [2-(4-Chloro-benzenesulfonyl)-N-(5-ethyl-4-phenyl-thiazol-2-yl)-2-methyl-propionamide], “agonistic activity”.
With `O=C(Nc1cc(C(F)(F)F)ccn1)C1(S(=O)(=O)c2ccc(C(F)(F)F)cc2)CC1` [1-(4-Trifluoromethyl-benzenesulfonyl)-cyclopropanecarboxylic acid (4-trifluoromethyl-pyridin-2-yl)-amide], the agonistic activity result is “agonistic activity”.
On to `Cc1ccc(S(=O)(=O)C(C)(C)C(=O)Nc2ccc(C(F)(F)F)cn2)cn1` [2-Methyl-2-(6-methyl-pyridine-3-sulfonyl)-N-(5-trifluoromethyl-pyridin-2-yl)-propionamide], for which the agonistic activity result is “agonistic activity”.
Consider `CC(C)(C)c1csc(NC(=O)C(C)(C)S(=O)(=O)c2ccc(C(F)(F)F)cc2)n1` [N-(4-tert-Butyl-thiazol-2-yl)-2-methyl-2-(4-trifluoromethyl-benzenesulfonyl)-propionamide], for which the agonistic activity entry is given as “agonistic activity”.
For `CC(C)(C)c1cc(NC(=O)C(C)(C)S(=O)(=O)c2ccc(C#N)cc2F)no1` [N-(5-tert-Butyl-isoxazol-3-yl)-2-(4-cyano-2-fluoro-benzenesulfonyl)-2-methyl-propionamide] the value was “agonistic activity”.
On to `CC(C)(C(=O)Nc1ncccc1C(F)(F)F)S(=O)(=O)c1ccc(Cl)cc1` [2-(4-Chloro-benzenesulfonyl)-2-methyl-N-(3-trifluoromethyl-pyridin-2-yl)-propionamide], for which the agonistic activity entry is on record as “agonistic activity”.
On to `Cn1nc(C(C)(C)C)cc1NC(=O)C(C)(C)S(=O)(=O)c1ccc(C#N)cc1` [N-(5-tert-Butyl-2-methyl-2H-pyrazol-3-yl)-2-(4-cyano-benzenesulfonyl)-2-methyl-propionamide], for which the agonistic activity entry is given as “agonistic activity”.
For `CCC(C)c1cc(NC(=O)C(C)(C)S(=O)(=O)c2ccc(Cl)cc2)n(C)n1` (stereo not shown) [N-(5-sec-Butyl-2-methyl-2H-pyrazol-3-yl)-2-(4-chloro-benzenesulfonyl)-2-methyl-propionamide], the agonistic activity result is reported as “agonistic activity”.
With `CC(C)(C)c1cc(NC(=O)C(C)(C)S(=O)(=O)c2ccc(F)cc2)on1` [N-(3-tert-Butyl-isoxazol-5-yl)-2-(4-fluoro-benzenesulfonyl)-2-methyl-propionamide], the agonistic activity result is given as “agonistic activity”.
Regarding `Cc1sc(NC(=O)C(C)(C)S(=O)(=O)c2ccc(Cl)cc2F)nc1-c1ccccc1` [2-[(4-chloro-2-fluorophenyl)sulfonyl]-2-methyl-N-(5-methyl-4-phenyl-1,3-thiazol-2-yl)propanamide], the agonistic activity result is “agonistic activity”.
For the molecule `Cn1nc(-c2ccccc2)cc1NC(=O)C1(S(=O)(=O)c2ccc(Cl)cc2)CC1` [1-(4-Chloro-benzenesulfonyl)-cyclopropanecarboxylic acid (2-methyl-5-phenyl-2H-pyrazol-3-yl)-amide], the agonistic activity entry was “agonistic activity”.
Turning to `CC(C)(C)c1cc(NC(=O)C(C)(C)S(=O)(=O)c2ccc(F)cc2F)on1` [N-(3-tert-Butyl-isoxazol-5-yl)-2-(2,4-difluoro-benzenesulfonyl)-2-methyl-propionamide], the agonistic activity entry is “agonistic activity”.
On to `Cn1nc(C2CCCCC2)cc1NC(=O)C(C)(C)S(=O)(=O)c1ccc(Cl)cc1` [2-(4-Chloro-benzenesulfonyl)-N-(5-cyclohexyl-2-methyl-2H-pyrazol-3-yl)-2-methyl-propionamide], for which the agonistic activity entry was “agonistic activity”.
